Source: patent US20230190902A1, “IDENTIFICATION OF HLA-RESTRICTED PRAME PEPTIDE EPITOPES, PRAME-SPECIFIC T CELLS SUITABLE FOR "OFF-THE-SHELF" TREATMENT OF CANCER EXPRESSING PRAME” (Children's National Medical Center, priority 2020, published 2023)
Entries after “also recorded” stand apart in the source; their conditions may differ.

Legend:
[1] = tested on: CD8+ T-cells; assay: Intracellular IFN-γ and TNF-α cytokine staining, CD8+ T-cells; format: cell-based, human; details: 6 h stimulation, 200 ng/peptide/well
Method: (§1) T-cells were stimulated for 6 h with PRAME PepMix or individual PRAME peptides (200 ng/peptide/well) in the presence of anti-CD28 and CD49d antibodies (RD Biosciences, San Jose, Calif., USA) and Brefeldin A (Golgiplug, BD Biosciences). Controls (unstimulated T-cells, actin, SEE) were included in each experiment. Intracellular IFN-γ (BioLegend, San Diego, Calif.) and TNF-α (Miltenyi Biotec, Bergisch Gladbach, Germany) staining were performed on fixed and permeabilized cells (Cytofix/Cytoperm, BD Biosciences). Data was acquired with a CytoFLEX cytometer (Beckman Coulter, Brea, Calif.), and analyzed using FlowJo Flow Cytometry software (FlowJo LLC, Ashland, Oreg.).
(§2) HLA restriction of these peptides was evaluated with intracellular IFN-γ and TNF-α cytokine staining.

[2] = tested on: CD4+ T-cells; assay: Intracellular IFN-γ and TNF-α cytokine staining, CD4+ T-cells; format: cell-based, human; details: 6 h stimulation, 200 ng/peptide/well
Method: as §1, §2

[3] = tested on: PRAME-specific T-cells; assay: Epitope mapping by IFN-γ ELISpot (peptide mini-pools and single 15-mer peptides); format: cell-based, human; details: 10 μg/well
Method: (§3) PRAME Peptides. The PRAME peptide library consisting of 125 15-mer peptides overlapping by 11 amino acids and spanning the entire sequence of PRAME protein was designed to identify HLA class 1 and HLA class H-restricted epitopes (A&A Labs, San Diego, Calif.) 23 peptide pools comprising 10-12 peptides were prepared so that each 15-mer peptide was included in only two pools (FIGS. 7A and 7B). To determine minimal PRAME epitopes, additional 9-mer peptides overlapping by 8 amino acids spanning immunogenic 15-mer peptides were obtained from A&A Labs, San Diego, Calif. All peptides were reconstituted at 10 μg/μl in DMSO and stored at −80°C. until further use.
Epitope mapping. T-cell response to pools of peptide libraries and individual PRAME peptides were determined. by IFN-γ ELISpot assay. ELISpot assay was performed as previously described. 1×10^5 T-cells/well were plated alone, with actin (negative control), SEB (positive control), each peptide pool (1μg/well) and individual peptide (10 μg/well). IFN-γ spot-forming cells (SFC) were enumerated by Zellnet Consulting (Fort Lee, N.J.).
Responses that were at least 10 SFC/1×10^5 T-cells or greater than two-fold the background level of nonstimulated T-cells or T-cells stimulated with actin were considered positive responses.
In order to map the class 1-restricted responses, a mapping grid consisting of 23 mini-pools comprising 125 individual 15-mer peptides spanning the entire PRAME protein sequence to identify PRAME epitopes eliciting a response by ex-vivo expanded T-cells was used (FIG. 7A). IFN-γ production by PRAME- sensitized T-cells in response to stimulation with mini-pools was measured by ELISpot assay.
T-cell responses to single 15-mer peptides selected from the grid and their neighboring peptides were determined by IFN-γ ELISpot assay (FIG. 3B).

[4] = tested on: CD8+ T-cells; assay: Minimal 9-mer epitope determination by IFN-γ ELISpot; format: cell-based, human; details: 9-mers overlapping by 8 amino acids
Method: as §3
(§4) Minimal epitopes recognized by HLA I-restricted cell lines were determined by IFN-γ ELISpot assay. To confirm the restricted HLA allele, anti-human HLA class 1 B35 antigen monoclonal antibody was used in the ELISpot plate (MyBioSource, San Diego, Calif.).
The minimal 9-mer epitopes overlapping by 8 amino acids spanning the 15-mer peptides were determined by IFN-γ ELISpot.

[5] = molecular target: T1, HLA-B*35 (Homo sapiens, UniProt P01889, A329T/A93T/A95T/C349S/D201E/D98Y/E176V/E187L/E204Q/E69T/I218V/K202T/L119I/Q94N/R155S/R180L/S121R/S35A/S48A/T118I/V127L/V306I/V36M/Y140F/Y91F); assay: IFN-γ ELISpot with anti-HLA-B*35 antibody (HLA restriction); format: cell-based; details: versus T-cell product alone (FIG. 3G)
T1 construct: PRAME-specific T-cells were expanded from PBMCs obtained from twelve healthy donors; endogenous in cells; host or cells: ex vivo expanded PRAME-specific T-cell product from healthy donor PBMCs
Method: as §4
To confirm the HLA-B*35 restriction of FPEPEAAQP (SEQ ID NO: 6) further testing was performed using an anti-[…] antibody.

Row | Sequence | IFN-γ and TNF-α release by CD8+ T-cells [1] | IFN-γ and TNF-α release by CD4+ T-cells [2] | T-cell response to single 15-mer PRAME peptide, IFN-γ ELISpot ([3]; T-cell product of FIG. 3B/3C) | T-cell response to single 15-mer PRAME peptide, IFN-γ ELISpot ([3]; T-cell product of FIG. 4B/4C) | IFN-γ secretion upon stimulation with 9-mer (minimal epitope) [4] | specificity of T-cell product with anti-HLA-B*35 antibody [5] | specificity of T-cell product with anti-HLA-B*35 antibody ([5]; listed as FPEPEAAQPM)
1 | RLVELAGQSLLKDEA [compound 7] | activated | activated | – | – | – | – | –
2 | IPVEVINDLFLKEGA [compound 44] | released IFN-γ and TNF-α; also recorded: HLA-I-restricted | no specificity | immunogenic | – | – | – | –
3 | EKVKRKKNVLRLCCK [compound 50] | no specificity | released IFN-γ and TNF-α; also recorded: release of IFN-γ and TNF-α | – | recognition | – | – | –
4 | VEVLVDLFL | – | – | – | – | secreted IFN-γ; also recorded: minimal 9-mer peptides | – | –
5 | SFPEPEAAQPMTKKR [compound 37] | released IFN-γ and TNF-α; also recorded: HLA-I-restricted | no specificity | immunogenic | – | – | – | –
6 | FPEPEAAQP | – | – | – | – | secreted IFN-γ; also recorded: minimal 9-mer peptides | decreased specificity | confirms HLA restriction
7 | ASIYSFPEPEAAQPM (ASLYSFPEPEAAQPM) [compound 36] | released IFN-γ and TNF-α; also recorded: HLA-I-restricted | no specificity | immunogenic | – | – | – | –
8 | SPEKEEQYIAQFTSQ [compound 70] | – | – | – | recognition | – | – | –
9 | EQPFIPVEVINDLFL [compound 43] | released IFN-γ and TNF-α; also recorded: HLA-I-restricted | no specificity | immunogenic | – | – | – | –
10 | EEQYIAQFTSQFLSL [compound 71] | no specificity | released IFN-γ and TNF-α; also recorded: release of IFN-γ and TNF-α | – | recognition | – | – | –
